Test results reported in paper PMC8509773, “3-Pyridinylidene Derivatives of Chemically Modified Lupane and Ursane Triterpenes as Promising Anticancer Agents by Targeting Apoptosis” (International Journal of Molecular Sciences, 2021).

Assays:
[1] = test system: IGROV1; experiment: NCI-60 SRB screening (one-dose and five-dose); format: cell-based, human; details: 48 h; for Growth Percent: IGROV1, 10 μM
Outline: (§1)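 Growth inhibition is scored with sulforhodamine B after 48 h of continuous compound exposure. An MG_MID averages each parameter over the whole cell panel, insensitive lines being counted at the top tested concentration.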

[2] = test system: M14; experiment: NCI-60 SRB screening (one-dose and five-dose); format: cell-based, human; details: 48 h; for Growth Percent: M14, 10 μM
Outline: (§2)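 Single dose, 48 h incubation. Sulforhodamine B protein binding dye used to estimate cell growth spectrophotometrically against untreated controls. Mean graph midpoints averaged each parameter across all lines, insensitive lines entered at the highest concentration tested.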

[3] = test system: NCI-H23; experiment: NCI-60 SRB screening (one-dose and five-dose); format: cell-based, human; details: 48 h; for Growth Percent: NCI-H23, 10 μM
Outline: as §1

[4] = test system: MOLT-4; experiment: NCI-60 SRB screening (one-dose and five-dose); format: cell-based, human; details: 48 h; for Growth Percent: MOLT-4, 10 μM
Outline: as §2

[5] = test system: OVCAR-8; experiment: NCI-60 SRB screening (one-dose and five-dose); format: cell-based, human; details: 48 h; for Growth Percent: OVCAR-8, 10 μM
Outline: as §1

[6] = test system: SK-OV-3; experiment: NCI-60 SRB screening (one-dose and five-dose); format: cell-based, human; details: 48 h; for Growth Percent: SK-OV-3, 10 μM
Outline: (§3)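 Spectrophotometric SRB end point; 48-h drug exposure; percent of untreated-control growth reported.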

[7] = test system: UACC-62; experiment: NCI-60 SRB screening (one-dose and five-dose); format: cell-based, human; details: 48 h; for Growth Percent: UACC-62, 10 μM
Outline: as §3

[8] = test system: SR; experiment: NCI-60 SRB screening (one-dose and five-dose); format: cell-based, human; details: 48 h; for Growth Percent: 10 μM
Outline: as §2

[9] = test system: SNB-75; experiment: NCI-60 SRB screening (one-dose and five-dose); format: cell-based, human; details: 48 h; for Growth Percent: SNB-75, 10 μM
Outline: as §1

[10] = test system: HOP-92; experiment: NCI-60 SRB screening (one-dose and five-dose); format: cell-based, human; details: 48 h; for Growth Percent: HOP-92, 10 μM
Outline: as §1

[11] = test system: SK-MEL-2; experiment: NCI-60 SRB screening (one-dose and five-dose); format: cell-based, human; details: 48 h; for Growth Percent: SK-MEL-2, 10 μM
Outline: as §1

[12] = test system: U251; experiment: NCI-60 SRB screening (one-dose and five-dose); format: cell-based, human; details: 48 h; for Growth Percent: U251, 10 μM
Outline: as §2

[13] = test system: A498; experiment: NCI-60 SRB screening (one-dose and five-dose); format: cell-based, human; details: 48 h; for Growth Percent: A498, 10 μM
Outline: as §2

[14] = test system: EKVX; experiment: NCI-60 SRB screening (one-dose and five-dose); format: cell-based, human; details: 48 h; for Growth Percent: 10 μM
Outline: as §3

[15] = test system: RPMI-8226; experiment: NCI-60 SRB screening (one-dose and five-dose); format: cell-based, human; details: 48 h; for Growth Percent: RPMI-8226, 10 μM
Outline: as §3

[16] = test system: UO-31; experiment: NCI-60 SRB screening (one-dose and five-dose); format: cell-based, human; details: 48 h; for Growth Percent: UO-31, 10 μM
Outline: as §3

[17] = test system: RXF 393; experiment: NCI-60 SRB screening (one-dose and five-dose); format: cell-based, human; details: 48 h; for Growth Percent: RXF 393, 10 μM
Outline: as §2

[18] = test system: OVCAR-3; experiment: NCI-60 SRB screening (one-dose and five-dose); format: cell-based, human; details: 48 h; for Growth Percent: OVCAR-3, 10 μM
Outline: as §3

[19] = test system: COLO 205; experiment: NCI-60 SRB screening (one-dose and five-dose); format: cell-based, human; details: 48 h; for Growth Percent: COLO 205, 10 μM
Outline: as §3

[20] = test system: LOX IMVI; experiment: NCI-60 SRB screening (one-dose and five-dose); format: cell-based, human; details: 48 h; for Growth Percent: 10 μM
Outline: as §2

[21] = test system: NCI-60 cancer cell line panel; experiment: NCI-60 cancer cell line panel screening (whole panel / subpanels); format: cell-based; details: single dose 10 µM
Protocol: At first, compounds were tested in a single high dose concentration regimen (10 µM) against a panel of sixty various cancer cell lines; the results of the screening are outlined in Table 1 in the form of percent growth (GP %) of treated cells versus untreated cells used as control, where negative numbers indicate cell kill. The experimental results of growth inhibition may range from 0 to 100 and indicate a cytostatic effect while negative values indicate cell death and thus a cytotoxic activity (for NCI data see Supplementary Material Figures S6–S12).
The selectivity index (SI) was calculated by dividing the full panel MG_MID60 (μM) of tested compounds by their individual subpanel MG_MID of the cell line (μM); it correlates directly to the selectivity of their anticancer activity (Table 3). […] By contrast, despite its strong antiproliferative effect, compound 7 acts with low selectivity against the various human tumor cell lines, the highest SI value being 1.73.
Compounds 1, 2, and 4–8 were tested at one dose assay (10^−5 M) toward a panel of approximately sixty cancer cell lines representing different cancer types: leukemia, melanoma, lung, colon, CNS, ovarian, renal, prostate, and breast cancers. Primary anticancer assays were performed according to the NCI protocol as described elsewhere (see, e.g., http://dtp.nci.nih.gov accessed on 16 October 2019). The compounds were added at a single concentration and the cell cultures were incubated for 48 h. The end point determinations were made with a protein binding dye, sulforhodamine B (SRB). The results for each compound are reported as the percent growth (GP %) of treated cells compared to untreated control cells (negative numbers indicate cell kill). Compounds with considerable activity against all tested human tumor cell lines (6 and 7) were selected for the advanced assay against a panel of approximately sixty tumor cell lines at 10-fold dilutions of five concentrations (100 µM, 10 µM, 1 µM, 0.1 µM, and 0.01 µM). The percentage of growth was evaluated spectrophotometrically versus controls not treated with test agents after 48-h exposure and using SRB protein assay to estimate cell viability or growth. Three antitumor activity dose–response parameters were calculated for each cell line: GI50—molar concentration of the compound that inhibits 50% net cell growth; TGI—molar concentration of the compound leading to the total inhibition; and LC50—molar concentration of the compound leading to 50% net cell death (presented in negative logarithm). Furthermore, mean graph midpoints (MG_MID) were calculated for each of the parameters, giving an average activity parameter over all cell lines for the tested compound. For the MG_MID calculation, insensitive cell lines were included with the highest concentration tested.

[22] = Homo sapiens, five dose 0.01–100 μM

SMILES | Growth Percent [1] | Growth Percent [2] | Growth Percent [3] | Growth Percent [4] | Growth Percent [5] | Growth Percent [6] | Growth Percent [7] | Growth Percent [8] | Growth Percent [9] | Growth Percent [10] | Growth Percent [11] | Growth Percent [12] | Growth Percent [13] | Growth Percent [14] | Growth Percent [15] | Growth Percent [16] | Growth Percent [17] | Growth Percent [18] | Growth Percent [19] | Growth Percent [20] | further results
COC(=O)[C@]12CC[C@@H](C(C)=O)[C@@H]1[C@H]1CC[C@@H]3[C@@]4(C)C/C(=C\c5cccnc5)C(=O)C(C)(C)[C@@H]4CC[C@@]3(C)[C@]1(C)CC2 [Compound 8, Methyl 3,20-dioxo-2-(3-pyridinylidene)-29-nor-lup-28-oate] | 85.80% | 56.69% | 53.20% | 5.47% | 38.71% | 93.73% | 34.54% | 12.35% | 110.35% | 66.73% | 68.06% | 56.61% | 80.56% | 85.77% | 2.88% | 56.64% | 30.89% | 49.04% | 82.53% | – | –
COc1cccc2c1C(=O)c1c(O)c3c(c(O)c1C2=O)C[C@@](O)(C(=O)CO)C[C@@H]3O[C@H]1C[C@H](N)[C@H](O)[C@H](C)O1 [Doxorubicin, reference compound] | – | – | – | – | – | – | – | – | – | – | – | – | – | – | – | – | – | – | – | – | GI50 ([1]; Homo sapiens, IGROV-1, IGROV1, five dose 0.01–100 μM): 170 nM; GI50 ([2]; Homo sapiens, M14, five dose 0.01–100 μM): 180 nM; GI50 ([3]; Homo sapiens, NCI-H23, five dose 0.01–100 μM): 150 nM; GI50 ([4]; Homo sapiens, MOLT-4, five dose 0.01–100 μM): 30 nM; GI50 ([5]; Homo sapiens, OVCAR-8, five dose 0.01–100 μM): 100 nM; GI50 ([6]; Homo sapiens, SK-OV-3, five dose 0.01–100 μM): 220 nM; GI50 ([7]; Homo sapiens, UACC-62, five dose 0.01–100 μM): 120 nM; GI50 [8, 22]: 30 nM; GI50 ([9]; Homo sapiens, SNB-75, five dose 0.01–100 μM): 70 nM; GI50 ([10]; Homo sapiens, HOP-92, five dose 0.01–100 μM): 100 nM; GI50 ([11]; Homo sapiens, SK-MEL-2, five dose 0.01–100 μM): 170 nM; GI50 ([12]; Homo sapiens, U-251, U251, five dose 0.01–100 μM): 40 nM; GI50 ([13]; Homo sapiens, A498, five dose 0.01–100 μM): 100 nM; GI50 [14, 22]: 410 nM; GI50 ([15]; Homo sapiens, RPMI-8226, five dose 0.01–100 μM): 80 nM; GI50 ([16]; Homo sapiens, UO-31, five dose 0.01–100 μM): 490 nM; GI50 ([17]; Homo sapiens, RXF 393, five dose 0.01–100 μM): 100 nM; GI50 [20, 22]: 70 nM; GI50 ([18]; Homo sapiens, OVCAR-3, five dose 0.01–100 μM): 390 nM; GI50 ([19]; Homo sapiens, COLO 205, five dose 0.01–100 μM): 180 nM
C[C@H]1[C@@H]2[C@H]3CC[C@@H]4[C@@]5(C)CC[C@H](O)C(C)(C)[C@@H]5CC[C@@]4(C)[C@]3(C)CC[C@]23CO[C@@]1(C)[C@@H](C(=O)/C=C/c1ccco1)C3 [Compound 5, 3β-Hydroxy-21-[3-(2E-furyl)-prop-2-en-1-one]-20β,28-epoxy-18α,19βH-ursane] | 107.89% | 34.35% | 98.55% | – | 99.33% | 102.58% | 7.16% | – | 78.39% | 65.36% | 9.51% | 69.38% | 96.19% | 104.96% | 105.93% | 77.02% | 109.55% | 102.55% | −2.30% | 89.02% | –
C[C@H]1[C@@H]2[C@H]3CC[C@@H]4[C@@]5(C)CC[C@H](O)C(C)(C)[C@@H]5CC[C@@]4(C)[C@]3(C)CC[C@]23CO[C@@]1(C)C(C(=O)/C=C/c1cccnc1)C3 (some centres unmarked) [Compound 4] | 80.59% | 60.79% | 59.51% | 25.21% | 35.05% | 77.76% | 41.49% | – | 72.76% | 79.10% | 87.32% | 58.63% | 72.89% | 101.00% | 9.55% | 58.69% | 75.20% | 46.73% | 56.27% | 51.47% | –
CC(=O)O[C@H]1CC[C@]2(C)[C@H]3CC[C@@H]4[C@H]5[C@H](C)[C@@]6(C)OC[C@]5(CC[C@@]4(C)[C@]3(C)CC[C@H]2C1(C)C)CC6C(C)=O (some centres unmarked) [Compound 1] | 51.77% | 74.76% | 84.77% | 42.52% | 92.52% | 98.97% | 49.11% | 62.46% | 106.15% | 70.21% | 92.21% | 77.27% | – | 91.35% | 47.53% | 95.19% | 89.49% | 84.02% | 71.47% | 58.17% | Antiproliferative / cytotoxic activity in words [21]: completely lacks activity
CC(=O)[C@H]1C[C@]23CC[C@]4(C)[C@H](CC[C@@H]5[C@@]6(C)CCC(=O)C(C)(C)[C@@H]6CC[C@]54C)[C@H]2[C@H](C)[C@@]1(C)OC3 [Compound 2, 3-oxo-21β-acetyl-20β,28-epoxy-18α,19βH-ursane] | 88.93% | 107.08% | 90.60% | 100.88% | 104.68% | 118.18% | 85.81% | 92.32% | 72.80% | 95.88% | 105.22% | 107.36% | 67.96% | 71.73% | 102.14% | 66.99% | 76.40% | 119.38% | 111.81% | 94.48% | –
